Assay [1] deals with T1, human CB2 receptor (Homo sapiens, UniProt P34972).
T1 construct: expressed in transfected cells; host or cells: human embryonic kidney (HEK) cells, Semliki Forest Virus system, membrane preparations
Kind of assay: CB2 receptor affinity ([3H]-CP-55,940 displacement, HEK cell membranes). It counts as binding. Particulars: displacement of [3H]-CP-55,940 at 10 μM. As for the experimental part:
The affinity of the compounds of the invention for cannabinoid CB2 receptors was determined using membrane preparations of human embryonic kidney (HEK) cells in which the human CB2 receptor is transiently transfected using a Semliki Forest Virus system in conjunction with [^3H]-CP-55,940 as radioligand. After incubation of freshly prepared cell membrane preparation with the [^3H]-ligand, with or without addition of compounds of the invention, separation of bound and free ligand was performed by filtration over glass fiber filters. Radioactivity on the filter was measured by scintillation counting.
(§1) The ability of the compounds to displace the radioligand [^3H]-CP-55,940 was measured at a concentration of 10 μM and values provided as [% inhibition @ 10 μM] both for the CB1 and CB2 receptor assay, The lower % inhibition is, the lower the likelihood of side effects based on CB1 or CB2 receptor inhibition is.
(In general: Displacement assays read how much labelled ligand stays bound in the presence of the test substance.)

The target of assay [2] is T2, human CB1 receptor (Homo sapiens, UniProt P21554).
T2 construct: expressed in transfected cells; host or cells: human embryonic kidney (HEK) cells, Semliki Forest Virus system, membrane preparations
T2 sequence (P21554 whole entry): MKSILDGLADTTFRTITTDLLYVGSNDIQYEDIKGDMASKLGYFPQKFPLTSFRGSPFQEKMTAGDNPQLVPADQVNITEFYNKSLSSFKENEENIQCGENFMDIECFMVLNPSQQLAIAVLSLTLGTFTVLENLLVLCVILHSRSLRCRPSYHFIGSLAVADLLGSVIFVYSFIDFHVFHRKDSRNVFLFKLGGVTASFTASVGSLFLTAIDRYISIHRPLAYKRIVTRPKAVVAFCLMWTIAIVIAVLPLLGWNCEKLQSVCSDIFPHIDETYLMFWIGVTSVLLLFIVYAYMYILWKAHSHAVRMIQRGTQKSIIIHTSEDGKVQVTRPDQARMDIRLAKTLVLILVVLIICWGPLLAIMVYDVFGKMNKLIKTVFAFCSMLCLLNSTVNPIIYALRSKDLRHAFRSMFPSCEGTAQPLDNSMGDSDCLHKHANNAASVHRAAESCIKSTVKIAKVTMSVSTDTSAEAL
Kind of assay: CB1 receptor affinity ([3H]-CP-55,940 displacement, HEK cell membranes). It is filed as binding. Conditions: displacement of [3H]-CP-55,940 at 10 μM; read-out: CB1 receptor affinity [% inhibition @ 10 μM]. The protocol:
The affinity of the compounds of the invention for cannabinoid receptors was determined using membrane preparations of human embryonic kidney (HEK) cells in which the human CB1 receptor is transiently transfected using a Semliki Forest Virus system in conjunction with [3H]-CP-55,940 as radioligand. After incubation of freshly prepared cell membrane preparation with the [^3H]-ligand, with or without addition of compounds of the invention, separation of bound and free ligand was performed by filtration over glass fiber filters. Radioactivity on the filter was measured by scintillation counting.
as §1

In assay [3] the test system is ABCA1 protein. The assay can be described thus: Detection of upregulation of ABCA1 protein in cells (ApoA-I binding, high content imaging). Particulars: THP-1 macrophage cells; for % increase of ABCA1 at 3 μM: compound at 3 μM, 24 hrs; for EC50: 24 hrs compound incubation, read-out: EC50 [μM] ABCA1 protein increasing efficacy. It is filed as cell-based. The protocol: The ability of compounds of the invention to increase the level of ABCA1 protein is determined in replicate cultures of THP-1 macrophage cells in 96-well microplates. Cells are plated at an initial density of 100,000 cells/well in 100 μl medium and differentiated to adherent macrophages with the addition of PMA (100 nM) for 68 hrs in 10% fetal bovine serum, 3 μl/L of b-mercaptoethanol, RPMI-1640 medium. Then, cells are incubated with RPMI-1640 medium containing 1% FCS, 25 μg/ml acetylated LDL, for 24 hours at 37° C. Following incubation with acetylated LDL, cells are washed twice with 50 μl PBS and incubated with 100 μl of RPMI-1640 medium containing the compound of interest solubilized in DMSO for an additional 24 hrs. The final DMSO concentration in presence of cells is maintained at 0.5%. ApoA-I binding assay using High Content Image Analysis is initiated by replacing with fresh medium, RPMI without Phenol Red, 0.2% BSA containing AlexaFluor®647 labeled ApoA-I for 2 h/37° C./5% CO2. Then, cells are fixed with 4% Formaldehyde in PBS (15 min, RT). Following Nuclei are stained with Hoechst solution (3 μM PBS) and Cytoplasm with Cell Mask Blue (2 μg/ml PBS), 15 min, RT. Finally the stained cells are fixed with a second round of formaldehyde treatment. Fixed stained cells are washed and kept in PBS at 4° C. and can be read immediately until one month after preparation.
The Alexa Fluor 647-labeled Apolipoprotein A-I (20 nM) was prepared as follows: Human recombinant Apolipoprotein A-I (ApoA-I) was exchanged to a buffer of 0.02 M NaHCO3 at pH 8.2 on an NAP desalting column (GE Healthcare) and brought to a concentration to 40 μM (1.13 mg/ml) by adjustment with the same buffer. The ApoA-I was fluorescently labeled by incubation with Alexa Fluor carboxylic acid succimidyl ester (Alexa Fluor 647, Invitrogen A-20006) at a 2:1 molar ratio (Alexa to ApoA-I) for 1 h under shaking at RT. The remaining unconjugated label was removed by buffer exchange to 0.02M NaHCO3 at pH 8.2.
Imaging and data collection were performed on an OPERA confocal microplate imaging reader using a 20× water immersion objective and UV360 or 405 laser to identify the cell nuclei and a 635 laser to identify the fluorescent ApoA-I. Eight fields of view are captured per well. Image capture and analysis was performed with the Acapella software. Background fluorescence detected in control wells without ApoA-I was subtracted.
Using XLfit3 program (ID Business Solutions Ltd. UK), the model 205 for Dose Response One Site is used to calculate the EC50 values. […] More particularly, the compounds of the present invention have EC50 values in a range of 0.1 μM to 3 μm.

Molecules are shown by their SMILES.

T1 sequence (P34972 whole entry): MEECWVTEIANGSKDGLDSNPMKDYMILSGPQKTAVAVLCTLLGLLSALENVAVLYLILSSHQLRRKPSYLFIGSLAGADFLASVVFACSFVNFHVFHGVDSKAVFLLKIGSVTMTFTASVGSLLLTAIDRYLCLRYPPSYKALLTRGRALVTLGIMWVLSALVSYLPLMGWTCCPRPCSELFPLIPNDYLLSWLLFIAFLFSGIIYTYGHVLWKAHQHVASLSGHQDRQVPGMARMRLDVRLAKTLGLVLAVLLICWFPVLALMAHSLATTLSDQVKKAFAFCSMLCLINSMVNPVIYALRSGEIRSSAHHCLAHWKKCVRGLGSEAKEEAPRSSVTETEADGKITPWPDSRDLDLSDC

One may read the inhibition as the change of the read-out against control, counted positive when it falls. On to `O=C(NN1CCS(=O)(=O)CC1)c1cnc(OCC(F)(F)F)c(-c2ccc(Cl)cc2)c1` [Example 3, 5-(4-chloro-phenyl)-N-(1,1-dioxido-4-thiomorpholinyl)-6-(2,2,2-trifluoro-ethoxy)-3-pyridinecarboxamide], for which the figures for the inhibition at 10 µM in assay [1] and in assay [2] were 7% and 39%, respectively. The “% increase of ABCA1 at 3 μM” value in assay [3] is reported as above 45%@ 3 μM.
For orientation: EC50 means the concentration giving half of the maximal effect. On to `N#Cc1ccc(-c2cc(C(=O)NN3CCC(O)CC3)cnc2OCC(F)(F)F)cc1` [Example 36, 5-(4-cyano-phenyl)-N-(4-hydroxy-piperidin-1-yl)-6-(2,2,2-trifluoro-ethoxy)-nicotinamide], for which the inhibition at 10 µM in assay [1] was -4%; in assay [2], 10%. Moreover, the EC50 in assay [3] was 1.86 µM.
The matching figures for `O=C(NN1CCC(O)CC1)c1cnc(OCC(F)(F)F)c(C2CCCCC2)c1` [Example 12, 5-cyclohexyl-N-(4-hydroxypiperidin-1-yl)-6-(2,2,2-trifluoroethoxy)-3-pyridinecarboxamide]: 6%, 8% and 1.48 µM.
As to `O=C(NN1CCCC1=O)c1cnc(OCC(F)(F)F)c(C2CCCC2)c1` [Example 15, 5-cyclopentyl-N-(2-oxopyrrolidin-1-yl)-6-(2,2,2-trifluoroethoxy)-3-pyridinecarboxamide], the inhibition at 10 µM in assay [1] is 12%; in assay [2], 13%. The “% increase of ABCA1 at 3 μM” value in assay [3] is reported as above 45%@ 3 μM.
With `CN(NC(=O)c1cnc(OCC(F)(F)F)c(C2CCN(C(=O)OC(C)(C)C)CC2)c1)c1ccc(F)cc1` [Example 40, 5-[N′-(4-fluoro-phenyl)-N′-methyl-hydrazinocarbonyl]-2-(2,2,2-trifluoro-ethoxy)-3′,4′,5′,6′-tetrahydro-2′H-[3,4′]bipyridinyl-1′-carboxylic acid tert-butyl ester], the inhibition at 10 µM turned out to be 3% in assay [1] and 50% in assay [2]. Besides, the EC50 in assay [3] came out at 0.68 µM.
For `O=C(NN1CC(CN2CCOCC2)OC1=O)c1cnc(OCC(F)(F)F)c(-c2ccc(Cl)cc2)c1` (stereo not drawn) [Example 7, 5-(4-chlorophenyl)-N-(5-(morpholinomethyl)-2-oxooxazolidin-3-yl)-6-(2,2,2-trifluoroethoxy)-3-pyridinecarboxamide], the inhibition at 10 µM in assay [1] is -4%; in assay [2], 36%. In assay [3], the “% increase of ABCA1 at 3 μM” value was above 45%@ 3 μM.
The matching figures for `CN(NC(=O)c1cnc(OCC(F)(F)F)c(C2CCCCC2)c1)c1ccccc1` [Example 20, 5-cyclohexyl-N′-methyl-N′-phenyl-6-(2,2,2-trifluoroethoxy)-3-pyridinecarboxylic acid hydrazide]: 9%, 39% and above 45%@ 3 μM.
As for `CN(NC(=O)c1cnc(OCC(F)(F)F)c(C2CCOCC2)c1)c1ccccc1` [Example 35, 5-(tetrahydro-pyran-4-yl)-6-(2,2,2-trifluoro-ethoxy)-nicotinic acid N′-methyl-N′-phenyl-hydrazide], the inhibition at 10 µM in assay [1] was found to be 25%; in assay [2], 34%. For the same molecule, the EC50 in assay [3] was determined as 2.35 µM.
As for `CN(NC(=O)c1cnc(OCC(F)(F)F)c(-c2ccc(Cl)cc2)c1)c1ccccc1` [Example 5, 5-(4-chloro-phenyl)-6-(2,2,2-trifluoro-ethoxy)-3-pyridinecarboxylic acid N′-methyl-N′-phenyl-hydrazide], the inhibition at 10 µM in assay [1] stood at 31%; in assay [2], 45%. In addition, the “% increase of ABCA1 at 3 μM” value in assay [3] is on record as above 45%@ 3 μM.
In the case of `O=C(NN1CCC(O)CC1)c1cnc(OC2CCC2)c(-c2ccco2)c1` [Example 50, 6-cyclobutoxy-5-furan-2-yl-N-(4-hydroxy-piperidin-1-yl)-nicotinamide], the inhibition at 10 µM in assay [1] stood at 6%; in assay [2] it was 15%. The EC50 in assay [3] was found to be 0.16 µM.
Take `CS(=O)(=O)N1CCN(NC(=O)c2cnc(OCC(F)(F)F)c(-c3ccc(Cl)cc3)c2)CC1` [Example 13, 5-(4-chlorophenyl)-N-(4-(methylsulfonyl)piperazin-1-yl)-6-(2,2,2-trifluoroethoxy)-3-pyridinecarboxamide]: the inhibition at 10 µM amounted to 1% in assay [1] and 23% in assay [2]. Further, the EC50 in assay [3] worked out at 0.33 µM.
Regarding `O=C(NNCC(F)(F)F)c1cnc(OCC(F)(F)F)c(-c2ccc(Cl)cc2)c1` [Example 1, 5-(4-chlorophenyl)-6-(2,2,2-trifluoroethoxy)-N′-(2,2,2-trifluoroethyl)-3-pyridinecarboxylic acid hydrazide], the inhibition at 10 µM in assay [1] worked out at 10%; in assay [2], 42%. Further, the “% increase of ABCA1 at 3 μM” value in assay [3] is listed as above 45%@ 3 μM.
For the molecule `O=C(NN1CCOCC1)c1cnc(OCC(F)(F)F)c(C2CCCCC2)c1` [Example 19, 5-cyclohexyl-N-morpholino-6-(2,2,2-trifluoroethoxy)-3-pyridinecarboxamide], the values for the inhibition at 10 µM in assay [1] and in assay [2] were -23% and 29%, respectively. Also, the EC50 in assay [3] came to 5.39 µM.
In the same order, the values of `O=C(NN1CCOCC1)c1cnc(OCC(F)(F)F)c(C2CC2)c1` [Example 32, 5-cyclopropyl-N-morpholin-4-yl-6-(2,2,2-trifluoro-ethoxy)-nicotinamide] are -14%, 14% and 1.77 µM.
As for `COC[C@@H]1CCCN1NC(=O)c1cnc(OCC(F)(F)F)c(C2CC2)c1` [Example 33, 5-cyclopropyl-N—((S)-2-methoxymethyl-pyrrolidin-1-yl)-6-(2,2,2-trifluoro-ethoxy)-nicotinamide], the values for the inhibition at 10 µM in assay [1] and in assay [2] were 3% and 21%, respectively. Besides, the EC50 in assay [3] came out at 0.68 µM.
As to `CC(C)(C)OC(=O)N1CCCN1C(=O)c1cnc(OCC(F)(F)F)c(-c2ccc(Cl)cc2)c1` [Example 4, t-butyl 2-[(5-(4-chlorophenyl)-6-(2,2,2-trifluoroethoxy)-3-pyridinyl)carbonyl]-pyrazolidine-1-carboxylate], the inhibition at 10 µM amounted to 24% in assay [1] and 40% in assay [2]. Besides, the “% increase of ABCA1 at 3 μM” value in assay [3] is recorded as above 45%@ 3 μM.
Consider `O=C(NN1CCC(O)CC1)c1cnc(OC2CCC2)c(-c2ccc(Cl)cc2)c1` [Example 11, 5-(4-chlorophenyl)-6-cyclobutoxy-N-(4-hydroxypiperidin-1-yl)-3-pyridinecarboxamide], for which the results for the inhibition at 10 µM in assay [1] and in assay [2] were -8% and 14%, respectively. Moreover, the EC50 in assay [3] stood at 0.18 µM.
Regarding `CN1CCN(NC(=O)c2cnc(OCC(F)(F)F)c(-c3ccc(Cl)cc3)c2)CC1=O` [Example 27, 5-(4-chlorophenyl)-N-(4-methyl-3-oxopiperazin-1-yl)-6-(2,2,2-trifluoroethoxy)-3-pyridinecarboxamide], the results for the inhibition at 10 µM in assay [1] and in assay [2] were -11% and 25%, respectively. Further, the EC50 in assay [3] was 2.39 µM.

(Values after patent US8648099B2 (Hoffmann-La Roche Inc., priority 2011, dated 2014).)
